# In the supplement of paper PMC10307832:
# How the values were obtained:
# Assay in all cases: relative viability (nuclei count vs DMSO), 5 days (fraction); higher = more cells survive
# Midostaurin + Decitabine = compound: CO[C@@H]1[C@H](N(C)C(=O)c2ccccc2)C[C@H]2O[C@]1(C)n1c3ccccc3c3c4c(c5c6ccccc6n2c5c31)C(=O)NC4 [Midostaurin] + Nc1ncn([C@H]2C[C@H](O)[C@@H](CO)O2)c(=O)n1 [Decitabine] (partner 2 µM)
# Summary of the method: (§1)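 For relative viability, nuclei counts in treated wells were divided by those in vehicle wells. Lung cancer cell lines had been pin-tool dosed in 1536-well plates the day after seeding and cultured for 5 days, then fixed and stained in one step (final 0.05% Triton X-100, 1% formaldehyde, 1 ug/ml Hoechst) and imaged at 4×. Doses were one drug alone or a fixed anchor-drug dose plus five library-drug doses (not always all listed) in √10 steps, and values are duplicate-plate medians.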
# Midostaurin + Trametinib = compound: CO[C@@H]1[C@H](N(C)C(=O)c2ccccc2)C[C@H]2O[C@]1(C)n1c3ccccc3c3c4c(c5c6ccccc6n2c5c31)C(=O)NC4 [Midostaurin] + CC(=O)Nc1cccc(-n2c(=O)n(C3CC3)c(=O)c3c(Nc4ccc(I)cc4F)n(C)c(=O)c(C)c32)c1 [Trametinib] (partner 0.02 µM)
# Summary of the method: as §1
# [1] = compound: COc1cc(-c2nn([C@H]3CC[C@H](N4CCN(C(C)=O)CC4)CC3)c3ncnc(N)c23)ccc1NC(=O)c1cc2ccccc2n1C + CC1(C)CCC(c2ccc(Cl)cc2)=C(CN2CCN(c3ccc(C(=O)NS(=O)(=O)c4ccc(N[C@H](CCN5CCOCC5)CSc5ccccc5)c(S(=O)(=O)C(F)(F)F)c4)cc3)CC2)C1 [Navitoclax] (partner 0.5 µM)
# Summary of the method: as §1
# Midostaurin + Pictilisib = compound: CO[C@@H]1[C@H](N(C)C(=O)c2ccccc2)C[C@H]2O[C@]1(C)n1c3ccccc3c3c4c(c5c6ccccc6n2c5c31)C(=O)NC4 [Midostaurin] + CS(=O)(=O)N1CCN(Cc2cc3nc(-c4cccc5[nH]ncc45)nc(N4CCOCC4)c3s2)CC1 [Pictilisib] (partner 1 µM)
# Summary of the method: as §1
# [2] = compound: COc1cc(-c2nn([C@H]3CC[C@H](N4CCN(C(C)=O)CC4)CC3)c3ncnc(N)c23)ccc1NC(=O)c1cc2ccccc2n1C + Cc1nc(Nc2ncc(C(=O)Nc3c(C)cccc3Cl)s2)cc(N2CCN(CCO)CC2)n1 [Dasatinib] (partner 0.075 µM)
# Summary of the method: as §1
Cell Line,relative viability (Midostaurin + Decitabine; first compound 0.01 µM),relative viability (Midostaurin + Decitabine; first compound 0.03162 µM),relative viability (Midostaurin + Decitabine; first compound 0.1 µM),relative viability (Midostaurin + Decitabine; first compound 0.3162 µM),relative viability (Midostaurin + Trametinib; first compound 0.01 µM),relative viability (Midostaurin + Trametinib; first compound 0.03162 µM),relative viability (Midostaurin + Trametinib; first compound 0.1 µM),relative viability (Midostaurin + Trametinib; first compound 0.3162 µM),relative viability ([1]; first compound 0.0128 µM),relative viability ([1]; first compound 0.04048 µM),relative viability ([1]; first compound 0.128 µM),relative viability ([1]; first compound 1.28 µM),relative viability (Midostaurin + Pictilisib; first compound 0.01 µM),relative viability (Midostaurin + Pictilisib; first compound 0.03162 µM),relative viability (Midostaurin + Pictilisib; first compound 0.1 µM),relative viability (Midostaurin + Pictilisib; first compound 0.3162 µM),relative viability ([2]; first compound 0.0128 µM),relative viability ([2]; first compound 0.04048 µM),relative viability ([2]; first compound 0.128 µM),relative viability ([2]; first compound 1.28 µM)
LOU-NH91,0.783,0.781,0.835,0.798,0.758,0.717,0.814,0.804,0.658,0.661,0.768,0.638,0.541,0.54,0.514,0.562,0.557,0.545,0.531,0.54
NCI-H3122,0.394,0.395,0.531,0.551,0.244,0.191,0.214,0.264,1.03,–,1.01,0.869,0.681,0.583,0.64,0.734,0.854,–,0.775,0.809
HCC-827,0.303,0.318,0.356,0.349,0.557,0.488,0.607,0.641,1.01,1.06,1.1,1.04,1.03,1,1.16,1.25,0.311,0.313,0.281,0.275
SK-LU-1,0.704,0.724,0.595,0.597,0.511,0.517,0.521,0.509,0.95,0.801,0.544,0.567,0.602,0.676,0.56,0.572,0.201,0.236,0.211,0.243
NCI-H1975,0.368,0.446,0.366,0.363,0.344,0.388,0.357,0.416,1.11,1.17,1.08,0.697,0.277,0.273,0.263,0.248,0.345,0.294,0.357,0.24
NCI-H1651,0.612,0.596,0.696,0.649,0.81,0.804,0.795,0.949,1.09,1.07,1.07,0.963,0.543,0.575,0.529,0.512,0.426,0.568,0.432,0.458
NCI-H441,0.249,0.237,0.221,0.23,0.418,0.373,0.516,0.343,0.868,0.798,0.91,0.581,0.496,0.434,0.488,0.512,0.628,0.463,0.657,0.536
LCLC-97TM1,0.215,0.239,0.25,0.242,0.266,0.194,0.195,0.184,0.464,0.388,0.385,0.389,0.199,–,0.163,0.313,0.97,0.348,0.789,0.697
NCI-H727,0.88,0.911,0.925,0.932,0.381,0.444,0.369,0.375,0.408,–,0.463,0.289,0.491,0.301,0.378,0.329,0.322,–,0.296,0.381
NCI-H1355,0.361,0.386,0.346,0.348,0.413,0.459,0.477,0.487,1.02,0.923,0.928,0.967,0.415,0.381,0.401,0.526,0.834,0.798,0.719,0.884
HOP-62,0.203,0.25,0.246,0.227,0.473,0.42,0.362,0.362,1.06,1.18,0.825,1.1,0.804,0.641,0.735,1.11,0.704,0.514,0.632,0.765
NCI-H2085,0.54,0.525,0.607,0.523,0.526,0.53,0.471,0.608,1.16,1.23,1.19,1.01,0.501,0.428,0.448,0.446,0.237,0.246,0.249,0.219
